Holding throughout (assay): KinomeScan kinase panel, single concentration 10 µM
Common to all, as to format: binding

Test [1] addresses T1, KinomeScan kinase panel (Homo sapiens, UniProt O75385).
T1 construct: purchased DiscoveRx (KinomeScan)
T1 sequence (O75385 1-1050): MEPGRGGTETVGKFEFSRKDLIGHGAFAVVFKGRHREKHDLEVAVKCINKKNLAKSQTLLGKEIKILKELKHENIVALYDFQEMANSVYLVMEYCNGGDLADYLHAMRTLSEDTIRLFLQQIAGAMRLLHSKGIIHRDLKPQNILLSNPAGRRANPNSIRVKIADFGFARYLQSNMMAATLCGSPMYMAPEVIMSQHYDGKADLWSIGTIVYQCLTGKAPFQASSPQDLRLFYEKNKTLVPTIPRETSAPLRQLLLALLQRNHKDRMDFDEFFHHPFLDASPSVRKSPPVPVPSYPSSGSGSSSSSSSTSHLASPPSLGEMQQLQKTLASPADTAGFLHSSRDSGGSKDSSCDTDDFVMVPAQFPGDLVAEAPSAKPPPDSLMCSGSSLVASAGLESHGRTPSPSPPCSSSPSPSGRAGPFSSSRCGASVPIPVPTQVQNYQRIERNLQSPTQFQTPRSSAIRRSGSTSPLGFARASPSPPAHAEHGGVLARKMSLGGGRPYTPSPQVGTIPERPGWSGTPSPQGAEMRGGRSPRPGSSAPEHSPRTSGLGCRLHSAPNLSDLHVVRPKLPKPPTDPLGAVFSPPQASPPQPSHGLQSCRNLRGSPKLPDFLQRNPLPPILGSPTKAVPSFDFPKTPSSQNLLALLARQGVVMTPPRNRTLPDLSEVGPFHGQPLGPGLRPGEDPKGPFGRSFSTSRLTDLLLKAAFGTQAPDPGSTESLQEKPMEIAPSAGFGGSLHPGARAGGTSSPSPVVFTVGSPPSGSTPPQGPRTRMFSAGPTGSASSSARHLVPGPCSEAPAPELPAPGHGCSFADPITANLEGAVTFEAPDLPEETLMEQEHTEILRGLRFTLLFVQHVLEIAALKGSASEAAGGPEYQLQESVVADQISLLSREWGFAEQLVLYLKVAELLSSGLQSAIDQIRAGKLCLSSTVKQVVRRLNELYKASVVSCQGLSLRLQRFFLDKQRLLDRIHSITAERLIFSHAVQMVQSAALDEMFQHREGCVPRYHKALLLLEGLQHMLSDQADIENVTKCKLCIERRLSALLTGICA
The following applies: kinase ULK1; 10 µM.

For test [2], the target named is T2, KinomeScan kinase panel (Homo sapiens, UniProt Q13557).
T2 construct: purchased DiscoveRx (KinomeScan)
The following applies: CAMK2D, 10 µM; read-out: score (%).

For test [3], the target named is T3, KinomeScan kinase panel (Homo sapiens, UniProt Q8IW41).
T3 construct: purchased DiscoveRx (KinomeScan)
T3 sequence (Q8IW41 1-473): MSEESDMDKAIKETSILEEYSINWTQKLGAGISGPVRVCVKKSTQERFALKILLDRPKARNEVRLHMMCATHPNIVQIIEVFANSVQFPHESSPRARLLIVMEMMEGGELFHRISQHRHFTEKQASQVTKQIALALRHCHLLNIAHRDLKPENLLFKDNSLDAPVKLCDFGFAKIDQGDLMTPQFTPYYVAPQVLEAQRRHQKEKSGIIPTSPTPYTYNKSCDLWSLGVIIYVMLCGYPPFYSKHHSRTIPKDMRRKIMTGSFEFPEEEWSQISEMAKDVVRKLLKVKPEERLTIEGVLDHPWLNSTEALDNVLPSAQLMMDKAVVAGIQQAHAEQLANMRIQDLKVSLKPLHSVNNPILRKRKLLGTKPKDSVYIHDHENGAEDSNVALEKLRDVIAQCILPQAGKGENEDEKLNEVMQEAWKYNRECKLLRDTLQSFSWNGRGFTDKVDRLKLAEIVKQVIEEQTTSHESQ
As to conditions: MAPKAPK5, 10 µM; read-out: score (%).

The target of test [4] is T4, KinomeScan kinase panel (Homo sapiens, UniProt Q8TDC3).
T4 construct: purchased DiscoveRx (KinomeScan)
T4 sequence (Q8TDC3 1-778): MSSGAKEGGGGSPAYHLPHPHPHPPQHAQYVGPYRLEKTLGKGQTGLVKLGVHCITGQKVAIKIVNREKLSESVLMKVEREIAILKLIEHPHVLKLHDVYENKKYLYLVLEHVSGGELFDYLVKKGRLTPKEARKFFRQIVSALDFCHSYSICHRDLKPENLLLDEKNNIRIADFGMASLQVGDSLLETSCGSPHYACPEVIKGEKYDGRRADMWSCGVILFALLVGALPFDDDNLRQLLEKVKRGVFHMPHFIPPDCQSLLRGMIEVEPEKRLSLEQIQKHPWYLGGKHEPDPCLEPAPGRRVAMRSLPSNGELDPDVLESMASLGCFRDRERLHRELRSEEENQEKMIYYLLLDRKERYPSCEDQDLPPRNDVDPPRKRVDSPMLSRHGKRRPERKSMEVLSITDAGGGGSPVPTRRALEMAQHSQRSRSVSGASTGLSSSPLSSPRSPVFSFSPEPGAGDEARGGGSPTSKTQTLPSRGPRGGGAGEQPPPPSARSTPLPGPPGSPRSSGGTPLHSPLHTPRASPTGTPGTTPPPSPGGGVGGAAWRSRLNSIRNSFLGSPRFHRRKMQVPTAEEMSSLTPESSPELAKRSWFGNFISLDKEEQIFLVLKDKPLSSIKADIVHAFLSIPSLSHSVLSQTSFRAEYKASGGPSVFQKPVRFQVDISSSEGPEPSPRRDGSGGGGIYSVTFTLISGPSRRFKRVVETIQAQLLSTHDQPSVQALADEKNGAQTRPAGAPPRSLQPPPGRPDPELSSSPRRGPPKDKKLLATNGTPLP
As to conditions: BRSK1, 10 µM; read-out: score (%).

Test [5] concerns the target T5, KinomeScan kinase panel (Homo sapiens, UniProt Q92772).
T5 construct: purchased DiscoveRx (KinomeScan)
T5 sequence (Q92772 1-493): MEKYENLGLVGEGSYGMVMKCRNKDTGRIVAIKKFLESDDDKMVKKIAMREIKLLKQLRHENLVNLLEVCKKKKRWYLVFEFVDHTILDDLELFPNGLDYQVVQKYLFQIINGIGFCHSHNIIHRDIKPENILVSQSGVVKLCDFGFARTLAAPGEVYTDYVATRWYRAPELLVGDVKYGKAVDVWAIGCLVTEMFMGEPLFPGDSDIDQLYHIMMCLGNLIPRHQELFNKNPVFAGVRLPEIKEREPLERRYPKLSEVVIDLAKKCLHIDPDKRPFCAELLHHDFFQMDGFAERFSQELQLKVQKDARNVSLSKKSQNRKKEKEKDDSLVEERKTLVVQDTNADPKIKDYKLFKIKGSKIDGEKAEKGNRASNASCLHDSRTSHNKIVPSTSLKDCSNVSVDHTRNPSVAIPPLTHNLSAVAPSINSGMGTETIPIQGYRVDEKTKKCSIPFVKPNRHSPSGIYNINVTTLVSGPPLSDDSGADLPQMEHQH
As to conditions: CDKL2, 10 µM; read-out: score (%).

SMILES strings stand for the structures.

T2 sequence (Q13557 whole entry): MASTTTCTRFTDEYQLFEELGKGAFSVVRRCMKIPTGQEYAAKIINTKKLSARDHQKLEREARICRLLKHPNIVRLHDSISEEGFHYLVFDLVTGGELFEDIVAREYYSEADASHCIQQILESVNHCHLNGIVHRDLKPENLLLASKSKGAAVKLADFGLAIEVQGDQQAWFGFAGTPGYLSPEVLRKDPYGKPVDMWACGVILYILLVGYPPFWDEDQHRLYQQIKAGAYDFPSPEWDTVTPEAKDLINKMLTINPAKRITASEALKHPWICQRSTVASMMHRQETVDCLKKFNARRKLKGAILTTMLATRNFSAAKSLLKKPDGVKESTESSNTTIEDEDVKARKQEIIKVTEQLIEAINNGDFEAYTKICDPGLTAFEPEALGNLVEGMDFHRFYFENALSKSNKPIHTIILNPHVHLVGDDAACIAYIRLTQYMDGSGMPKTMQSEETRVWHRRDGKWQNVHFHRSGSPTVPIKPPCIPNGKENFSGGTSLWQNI

Take `CCN1CCN(Cc2ccc(NC(=O)c3ccc(C)c(NC(=O)c4cncc(-c5cccs5)c4)c3)cc2C(F)(F)F)CC1` [ALW-II-41-27]: the “score (%)” value on KinomeScan kinase panel [1] is “nb (Hits values higher than 30% were considered negative (no binding: nb))”. The remaining binding at 10 µM at KinomeScan kinase panel [2] is more than 30%; at KinomeScan kinase panel [3] it was more than 30%; at KinomeScan kinase panel [4], more than 30%; at KinomeScan kinase panel [5], 9.1%.
In the case of `CCN1CCN(Cc2ccc(NC(=O)c3ccc(C)c(/C=C/c4cnc5[nH]ccc5c4Cl)c3)cc2C(F)(F)F)CC1` [HG-6-63-01, (E)-3-(2-(4-chloro-1H-pyrrolo[2,3-b]pyridin-5-yl)vinyl)-N-(4-((4-ethylpiperazin-1-yl)methyl)-3-(trifluoromethyl)phenyl)-4-methylbenzamide], the “score (%)” value on KinomeScan kinase panel [1] is 8.7%. Besides, the remaining binding at 10 µM on KinomeScan kinase panel [2] is more than 30%; on KinomeScan kinase panel [3], more than 30%; at KinomeScan kinase panel [4], more than 30%; on KinomeScan kinase panel [5] it was 0.5%.
In the case of `CCN1CCN(Cc2ccc(NC(=O)c3ccc(C)c(C#Cc4cccnc4)c3)cc2C(F)(F)F)CC1` [XMD15-44], the “score (%)” value at KinomeScan kinase panel [1] worked out at 24%. In addition, the remaining binding at 10 µM is more than 30% at KinomeScan kinase panel [2], more than 30% at KinomeScan kinase panel [3], more than 30% on KinomeScan kinase panel [4] and 1.4% at KinomeScan kinase panel [5].

Values taken from PMC4457528, “Identification of Novel Small Molecule Inhibitors of Oncogenic RET Kinase” (PLoS ONE, 2015).
